ChEMBL document CHEMBL4673325, “Identification of 2-substituted pyrrolo[1,2-b]pyridazine derivatives as new PARP-1 inhibitors” (Bioorg Med Chem Lett, 2021)

Experiments:
[1] = target: Poly [ADP-ribose] polymerase 1 (Homo sapiens, UniProt P09874); test: Inhibition of PARP-1 (unknown origin)
[2] = target: Poly [ADP-ribose] polymerase 2 (Homo sapiens, UniProt Q9UGN5); test: Inhibition of PARP-2 (unknown origin)
[3] = test system: MDA-MB-436; test: Antiproliferative activity against BRCA1 deficient human MDA-MB-436 cells; assay type: functional
[4] = organism: Homo sapiens; test: Selectivity index, ratio of IC50 for PARP-2 (unknown origin) to IC50 for PARP-1 (unknown origin)
[5] = Antiproliferative activity against BRCA2 deficient chinese hamster V-C8 cells; assay type: functional, Cricetulus griseus
[6] = test system: MDA-MB-436; test: Antitumor activity against human MDA-MB-436 cells harboring BRCA1 mutation xenografted in mouse assessed as tumor growth inhibition administered orally for 21 days; assay type: functional; conditions: time 21.0 day

Poly [ADP-ribose] polymerase 2, sequence (Q9UGN5 whole entry): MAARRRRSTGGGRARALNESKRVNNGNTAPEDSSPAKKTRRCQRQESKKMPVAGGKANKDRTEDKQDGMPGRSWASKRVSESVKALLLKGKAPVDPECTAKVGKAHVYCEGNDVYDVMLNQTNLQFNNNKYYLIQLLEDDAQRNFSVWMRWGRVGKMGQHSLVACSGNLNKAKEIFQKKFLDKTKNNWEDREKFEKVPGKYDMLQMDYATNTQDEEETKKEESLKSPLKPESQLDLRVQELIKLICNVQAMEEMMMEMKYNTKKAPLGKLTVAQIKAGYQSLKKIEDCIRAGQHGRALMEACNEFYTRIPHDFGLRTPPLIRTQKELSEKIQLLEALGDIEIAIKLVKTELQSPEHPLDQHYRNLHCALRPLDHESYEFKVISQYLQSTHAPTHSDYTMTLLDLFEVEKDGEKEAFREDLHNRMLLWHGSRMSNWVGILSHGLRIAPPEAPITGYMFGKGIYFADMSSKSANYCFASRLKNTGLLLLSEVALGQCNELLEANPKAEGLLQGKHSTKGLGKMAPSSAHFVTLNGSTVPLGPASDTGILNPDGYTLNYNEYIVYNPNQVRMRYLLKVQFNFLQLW
Poly [ADP-ribose] polymerase 1, sequence (P09874 whole entry): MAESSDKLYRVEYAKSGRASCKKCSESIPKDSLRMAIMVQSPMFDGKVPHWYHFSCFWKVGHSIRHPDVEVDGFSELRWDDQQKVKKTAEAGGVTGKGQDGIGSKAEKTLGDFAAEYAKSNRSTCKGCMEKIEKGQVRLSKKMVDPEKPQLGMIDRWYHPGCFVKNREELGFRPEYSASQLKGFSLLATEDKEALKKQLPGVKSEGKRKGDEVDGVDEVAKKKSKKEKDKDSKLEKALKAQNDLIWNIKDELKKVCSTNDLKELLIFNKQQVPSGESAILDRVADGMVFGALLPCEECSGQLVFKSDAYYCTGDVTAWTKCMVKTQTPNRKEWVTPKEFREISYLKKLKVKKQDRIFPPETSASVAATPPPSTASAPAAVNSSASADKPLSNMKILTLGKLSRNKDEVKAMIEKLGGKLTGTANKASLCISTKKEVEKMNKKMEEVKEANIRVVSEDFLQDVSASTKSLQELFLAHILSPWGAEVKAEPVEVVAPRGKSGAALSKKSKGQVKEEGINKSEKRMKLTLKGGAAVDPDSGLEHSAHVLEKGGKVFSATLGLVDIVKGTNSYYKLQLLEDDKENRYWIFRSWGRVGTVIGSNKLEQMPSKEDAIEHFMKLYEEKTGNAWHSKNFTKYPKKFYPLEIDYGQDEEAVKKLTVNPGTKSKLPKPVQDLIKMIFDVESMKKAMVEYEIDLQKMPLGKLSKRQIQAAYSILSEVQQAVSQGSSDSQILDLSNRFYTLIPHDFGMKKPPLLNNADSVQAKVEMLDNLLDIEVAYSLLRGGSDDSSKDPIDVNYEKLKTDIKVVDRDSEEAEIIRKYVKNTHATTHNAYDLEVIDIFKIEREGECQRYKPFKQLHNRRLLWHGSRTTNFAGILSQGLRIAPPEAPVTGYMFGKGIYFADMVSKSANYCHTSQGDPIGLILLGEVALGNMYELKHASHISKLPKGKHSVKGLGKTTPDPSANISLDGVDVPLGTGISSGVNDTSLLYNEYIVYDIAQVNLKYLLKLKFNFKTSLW

IC50 [1] [µM] | IC50 [2] [µM] | Ratio IC50 [4] | Structure (SMILES) | CC50 ([3]; Homo sapiens, MDA-MB-436) [µM] | CC50 ([5]; Cricetulus griseus, V-C8) [µM] | CC50 [5] [µM] | CC50 [3] [µM] | TGI [6]
0.627 | 2.33 | 3.7 | NC(=O)c1cc(Cl)c2ccc(-c3ccc(CN4CCNCC4)cc3)nn12 | 9.67 | – | – | – | –
0.362 | 1.71 | 4.74 | COC1CCN(C(=O)c2ccc(-c3ccc4c(Cl)cc(C(N)=O)n4n3)cc2)C1 (centres undefined) | 9.64 | – | – | – | –
0.141 | 0.382 | 2.7 | CN1CCc2cc(-c3ccc4c(Cl)cc(C(N)=O)n4n3)sc2C1 | 2.58 | 3.62 | – | – | –
0.502 | 1.01 | 2 | CC(C)CC(=O)N1CCN(C(=O)c2ccc(-c3ccc4c(Cl)cc(C(N)=O)n4n3)cc2)CC1 | 3.84 | 5.75 | – | – | –
0.114 | 1.64 | 8.9 | COC1CCN(C(=O)c2ccc(-c3ccc4c(Cl)cc(C(N)=O)n4n3)c(F)c2)CC1 | – | – | – | – | –
0.433 | 2.2 | 5.1 | CCN(CC)Cc1ccc(-c2ccc3c(Cl)cc(C(N)=O)n3n2)cc1 | 3.73 | 3.51 | – | – | –
0.34 | 1.01 | 3 | NC(=O)c1cc(Cl)c2ccc(-c3ccc(C(=O)N4CCNCC4)cc3)nn12 | 8.09 | > 10 | – | – | –
3.33 | 0.445 | 0.13 | NC(=O)c1cc(Cl)c2ccc(-c3ccc(CN4CCN(c5ccc(C(F)(F)F)cc5)CC4)cc3)nn12 | 8.09 | > 10 | – | – | –
– | – | – | O=C(c1cc(Cc2n[nH]c(=O)c3ccccc23)ccc1F)N1CCN(C(=O)C2CC2)CC1 [OLAPARIB] | – | – | 0.4 | 0.0114 | –
0.369 | 1.44 | 3.9 | CC(C)N1CCN(Cc2ccc(-c3ccc4c(Cl)cc(C(N)=O)n4n3)cc2)CC1 | 3.55 | 2.7 | – | – | –
0.166 | 1.92 | 11.6 | NC(=O)c1cc(Cl)c2ccc(-c3ccc(F)c(C(=O)N4CCN(C(=O)C5CC5)CC4)c3)nn12 | – | 7.03 | – | – | –
0.818 | 1.13 | 1.4 | CN(C)C1CCN(Cc2ccc(-c3ccc4c(Cl)cc(C(N)=O)n4n3)cc2)CC1 | 5.48 | 2.78 | – | – | –
0.0933 | 0.705 | 7.5 | CN(C)Cc1ccc(-c2ccc3c(Cl)cc(C(N)=O)n3n2)cc1 | 0.687 | 6.2 | – | – | –
0.219 | 2.32 | 10.7 | NC(=O)c1cc(Cl)c2ccc(-c3ccc(C(=O)N4CCN(C(=O)C5CC5)CC4)cc3F)nn12 | 2.95 | 2.31 | – | – | –
0.249 | 1.12 | 4.5 | CNCc1ccc(-c2ccc3c(Cl)cc(C(N)=O)n3n2)cc1 | 1.28 | 2 | – | – | –
0.00724 | 0.209 | – | NC(=O)c1cc(Cl)c2ccc(-c3cc4c(s3)CCNC4)nn12 | 0.214 | 1.33 | – | – | –
0.432 | 1.12 | 2.6 | NC(=O)c1cc(Cl)c2ccc(-c3ccc(CN4CCCC4)cc3)nn12 | 5.4 | 2.15 | – | – | –
1.03 | 1 | 0.97 | CC(C)(C)C1NCCc2cc(-c3ccc4c(Cl)cc(C(N)=O)n4n3)sc21 (centres undefined) | 1.46 | 2.04 | – | – | –
3.51 | 4.51 | 1.28 | COC1CCN(C(=O)c2ccc(-c3ccc4c(Cl)cc(C(N)=O)n4n3)cc2)CC1 | – | 4.42 | – | – | –
1.08 | 0.997 | 0.92 | NC(=O)c1cc(Cl)c2ccc(-c3ccc(CN4CCN(C5CC5)CC4)cc3)nn12 | 75.2 | > 10 | – | – | –
0.157 | 0.363 | 2.3 | CN1CCc2sc(-c3ccc4c(Cl)cc(C(N)=O)n4n3)cc2C1 | 3.05 | 2.64 | – | – | –
– | – | – | NC(=O)c1cc(Cl)c2cc(-c3cc4c(s3)CNCC4)cnn12 | – | – | – | – | Dose-dependent effect
0.443 | 1.1 | 2.5 | NC(=O)c1cc(Cl)c2ccc(-c3ccc(C(=O)N4CCN(C(=O)C5CC5)CC4)cc3)nn12 | 9.54 | 2.48 | – | – | –
0.661 | 1.59 | 2.4 | COC1CCN(C(=O)c2ccc(-c3ccc4c(Cl)cc(C(N)=O)n4n3)c(F)c2)C1 (centres undefined) | – | – | – | – | –
